# Source: patent US6407103B2, “Indeno [1,2-c] pyrazol-4-ones and their uses” (Bristol-Myers Squibb Pharma Company, priority 1998, dated 2002)
# Where a name gives a salt, the structure may show the parent alone.
row,Structure (SMILES),melting point
1,O=C(Nc1cccc2c1C(=O)c1c-2n[nH]c1C1CCN(C(=O)Oc2ccccc2)CC1)NN1CCOCC1 (as salt: TFA),250 °C
2,O=C(Nc1cccc2c1C(=O)c1c-2n[nH]c1-c1ccc(C(=O)NC2CN3CCC2CC3)s1)NN1CCOCC1 (stereo not shown) (as salt: TFA),245 °C
3,"COC[C@H]1CCCN1NC(=O)Nc1cccc2c1C(=O)c1c-2n[nH]c1-c1ccc(C(=O)O)s1 (as salt: TFA) [Example CCII, 3-(5-carboxyl-2-thienyl)-5-(2(R)-(methoxymethyl)pyrrolidinocarbamoylamino)indeno[1,2-c]pyrazol-4-one]",258 °C
4,"COC[C@H]1CCCN1NC(=O)Nc1cccc2c1C(=O)c1c-2n[nH]c1-c1ccc(C(=O)N2CCN(C)CC2)s1 (as salt: TFA) [Example CCIII, 3-(5-(4-methylpiperazinocarbonyl)-2-thienyl)-5-(2(R)-(methoxymethyl)pyrrolidinocarbamoylamino)indeno[1,2-c]pyrazol-4-one]",181 °C
5,"COC[C@H]1CCCN1NC(=O)Nc1cccc2c1C(=O)c1c-2n[nH]c1-c1ccc(C(=O)N2CCNCC2)s1 (as salt: TFA) [Example CCIV, 3-(5-piperazinocarbonyl-2-thienyl)-5-(2(R)-(methoxymethyl)pyrrolidinocarbamoylamino)indeno[1,2-c]pyrazol-4-one]",> 300 °C
6,"O=C(Nc1cccc2c1C(=O)c1c-2n[nH]c1-c1ccc(N2CCC(N3CCCCC3)CC2)cc1)NN1CCOCC1 (as salt: TFA) [Example CCL, 3-(4-(4-piperidinopiperidino)phenyl)-5-(morpholinocarbamoylamino)indeno[1,2-c]pyrazol-4-one]",233 °C
7,"O=C(Nc1cccc2c1C(=O)c1c-2n[nH]c1-c1ccc(N2CCC(N3CCCC3)CC2)cc1)NN1CCOCC1 (as salt: TFA) [Example CCLI, 3-(4-(4-pyrrolidinopiperidino)phenyl)-5-(morpholinocarbamoylamino)indeno[1,2-c]pyrazol-4-one]",247 °C
8,"CCN(CC)C1CCN(c2ccc(-c3[nH]nc4c3C(=O)c3c(NC(=O)NN5CCOCC5)cccc3-4)cc2)CC1 (as salt: TFA) [Example CCLII, 3-(4-(4-(N,N-diethylamino)piperidino)phenyl)-5-(morpholinocarbamoylamino)indeno[1,2-c]pyrazol-4-one]",251 °C
9,"CC(=N)N1CCN(c2ccc(-c3[nH]nc4c3C(=O)c3c(NC(=O)NN5CCOCC5)cccc3-4)cc2)CC1 (as salt: TFA) [Example CCLIII, 3-(4-(4-(1-iminoethyl)piperazino)phenyl)-5-(morpholinocarbamoylamino)indeno[1,2-c]pyrazol-4-one]",240 °C
10,"CCc1[nH]nc2c1C(=O)c1c(NC(=O)NN3CCOCC3)cccc1-2 (as salt: TFA) [Example CCLIX, 3-ethyl-5-(morpholinocarbamoylamino)indeno[1,2-c]pyrazol-4-one]",253 °C
11,"CCc1[nH]nc2c1C(=O)c1c(NC(=O)NN3CCN(C)CC3)cccc1-2 (as salt: TFA) [Example CCLVI, 3-ethyl-5-(4-methylpiperazinocarbamoylamino)indeno[1,2-c]pyrazol-4-one]",244 °C
12,"O=C(Nc1cccc2c1C(=O)c1c-2n[nH]c1C1CCN(C(=O)n2ccnc2)CC1)NN1CCOCC1 (as salt: TFA) [Example CCLXIV, 3-(1-(imidazol-1-ylcarbonyl)piperidin-4-yl)-5-(morpholinocarbamoylamino)indeno[1,2-c]pyrazol-4-one]",202 °C
13,"CN(C)C1CCN(C(=O)N2CCC(c3[nH]nc4c3C(=O)c3c(NC(=O)NN5CCOCC5)cccc3-4)CC2)CC1 (as salt: TFA) [Example CCLXIX, 3-(1-(4-(dimethylamino)piperidinocarbonyl)piperidin-4-yl)-5-(morpholinocarbamoylamino)indeno[1,2-c]pyrazol-4-one]",172 °C
14,"O=C(Nc1cccc2c1C(=O)c1c-2n[nH]c1C1CCN(C(=O)c2cccs2)CC1)NN1CCOCC1 (as salt: TFA) [Example CCLXV, 3-(1-(2-thienylcarbonyl)piperidin-4-yl)-5-(morpholinocarbamoylamino)indeno[1,2-c]pyrazol-4-one]",218 °C
15,"O=C(Nc1cccc2c1C(=O)c1c-2n[nH]c1C1CCN(C(=O)N2CCNCC2)CC1)NN1CCOCC1 (as salt: TFA) [Example CCLXX, 3-(1-(piperazinocarbonyl)piperidin-4-yl)-5-(morpholinocarbamoylamino)indeno[1,2-c]pyrazol-4-one]",195 °C
16,"CC(C)(C)OC(=O)N1CCN(C(=O)N2CCC(c3[nH]nc4c3C(=O)c3c(NC(=O)NN5CCOCC5)cccc3-4)CC2)CC1 (as salt: TFA) [Example CCLXXI, 3-(1-(4-(t-butoxycarbonyl)piperazinocarbonyl)piperidin-4-yl)-5-(morpholinocarbamoylamino)indeno[1,2-c]pyrazol-4-one]",231 °C
17,"O=C(Nc1cccc2c1C(=O)c1c-2n[nH]c1C1CCN(C(=O)N2C[C@@H]3C[C@H]2CN3)CC1)NN1CCOCC1 (as salt: TFA) [Example CCLXXII, 3-(1-(((1S,4S)-(+)-2,5-diazabicyclo[2.2.1]hept-2-yl)carbonyl)piperidin-4-yl)-5-(morpholinocarbamoylamino)indeno[1,2-c]pyrazol-4-one]",196 °C
18,"CN1C[C@@H]2C[C@H]1CN2C(=O)N1CCC(c2[nH]nc3c2C(=O)c2c(NC(=O)NN4CCOCC4)cccc2-3)CC1 (as salt: TFA) [Example CCLXXIII, 3-(1-(((1S,4S)-(+)-5-methyl-2,5-diazabicyclo[2.2.1]hept-2-yl)carbonyl)piperidin-4-yl)-5-(morpholinocarbamoylamino)indeno[1,2-c]pyrazol-4-one]",225 °C
19,"CC(C)(C)OC(=O)NCCCCC(=O)N1CCC(c2[nH]nc3c2C(=O)c2c(NC(=O)NN4CCOCC4)cccc2-3)CC1 (as salt: TFA) [Example CCLXXIX, 3-(1-(4-(t-butoxycarbonylamino)butylcarbonyl)piperidin-4-yl)-5-(morpholinocarbamoylamino)indeno[1,2-c]pyrazol-4-one]",98 °C
20,"CN(C)CCCCC(=O)N1CCC(c2[nH]nc3c2C(=O)c2c(NC(=O)NN4CCOCC4)cccc2-3)CC1 (as salt: TFA) [Example CCLXXVIII, 3-(1-(4-(dimethylamino)butylcarbonyl)piperidin-4-yl)-5-(morpholinocarbamoylamino)indeno[1,2-c]pyrazol-4-one]",68 °C

# Further lines, results first:
row,melting point,Structure (SMILES)
1,264 °C,"O=C(Nc1cccc2c1C(=O)c1c-2n[nH]c1[C@H]1CC[C@H](C(=O)O)CC1)NN1CCOCC1 (as salt: TFA) [Example CCC, 3-(trans-4-carboxylcyclohexyl)-5-(morpholinocarbamoylamino)indeno[1,2-c]pyrazol-4-one]"
2,259 °C,"COC(=O)[C@H]1CC[C@H](c2[nH]nc3c2C(=O)c2c(NC(=O)NN4CCOCC4)cccc2-3)CC1 (as salt: TFA) [Example CCCI, 3-(trans-4-(methoxycarbonyl)cyclohexyl)-5-(morpholinocarbamoylamino)indeno[1,2-c]pyrazol-4-one]"
3,191 °C,"CN(C)C1CCN(C(=O)[C@H]2CC[C@H](c3[nH]nc4c3C(=O)c3c(NC(=O)NN5CCOCC5)cccc3-4)CC2)C1 (stereo partly drawn) (as salt: TFA) [Example CCCII, 3-(trans-4-(3-(dimethylamino)pyrrolidinocarbonyl)cyclohexyl)-5-(morpholinocarbamoylamino)indeno[1,2-c]pyrazol-4-one]"
4,248 °C,"O=C(Nc1cccc2c1C(=O)c1c-2n[nH]c1[C@H]1CC[C@H](C(=O)N2CCNCC2)CC1)NN1CCOCC1 (as salt: TFA) [Example CCCIII, 3-(trans-4-(piperazinocarbonyl)cyclohexyl)-5-(morpholinocarbamoylamino)indeno[1,2-c]pyrazol-4-one]"
5,228 °C,"CN1CCN(C(=O)[C@H]2CC[C@H](c3[nH]nc4c3C(=O)c3c(NC(=O)NN5CCOCC5)cccc3-4)CC2)CC1 (as salt: TFA) [Example CCCIV, 3-(trans-4-(4-methylpiperazinocarbonyl)cyclohexyl)-5-(morpholinocarbamoylamino)indeno[1,2-c]pyrazol-4-one]"
6,206 °C,"CCOC(=O)N1CCC(c2[nH]nc3c2C(=O)c2c(NC(=O)NN4CCOCC4)cccc2-3)CC1 (as salt: TFA) [Example CCLXII, 3-(1-ethoxycarbonylpiperidin-4-yl)-5-(morpholinocarbamoylamino)indeno[1,2-c]pyrazol-4-one]"
7,258 °C,"NC(=O)N1CCC(c2[nH]nc3c2C(=O)c2c(NC(=O)NN4CCOCC4)cccc2-3)CC1 (as salt: TFA) [Example CCLXVI, 3-(1-carbamoylpiperidin-4-yl)-5-(morpholinocarbamoylamino)indeno[1,2-c]pyrazol-4-one]"
8,103 °C,"NCCCCC(=O)N1CCC(c2[nH]nc3c2C(=O)c2c(NC(=O)NN4CCOCC4)cccc2-3)CC1 (as salt: TFA) [Example CCLXXVII, 3-(1-(4-aminobutylcarbonyl)piperidin-4-yl)-5-(morpholinocarbamoylamino)indeno[1,2-c]pyrazol-4-one]"
9,148 °C,"CN1CCC(C(=O)N2CCC(c3[nH]nc4c3C(=O)c3c(NC(=O)NN5CCOCC5)cccc3-4)CC2)CC1 (as salt: TFA) [Example CCLXXX, 3-(1-((1-methylpiperidin-4-yl)carbonyl)piperidin-4-yl)-5-(morpholinocarbamoylamino)indeno[1,2-c]pyrazol-4-one]"
10,212 °C,"N[C@H]1CC[C@@H](C(=O)N2CCC(c3[nH]nc4c3C(=O)c3c(NC(=O)NN5CCOCC5)cccc3-4)CC2)CC1 (as salt: TFA) [Example CCLXXXII, 3-(1-(cis-4-aminocyclohexylcarbonyl)piperidin-4-yl)-5-(morpholinocarbamoylamino)indeno[1,2-c]pyrazol-4-one]"
11,202 °C,"NC1CCC(C(=O)N2CCC(c3[nH]nc4c3C(=O)c3c(NC(=O)NN5CCOCC5)cccc3-4)CC2)CC1 (stereo not shown) (as salt: TFA) [Example CCLXXXIII, 3-(1-(4-aminocyclohexylcarbonyl)piperidin-4-yl)-5-(morpholinocarbamoylamino)indeno[1,2-c]pyrazol-4-one]"
